Target: T1, recombinant human mGluR4a receptors (Homo sapiens, UniProt Q14833)
T1 construct: expressed in transfected cells
Test: Fluorescent cell based Ca2+ mobilization assay (FLIPR) on HEK-293 cells expressing human mGluR4
Details: positive allosteric modulation in presence of EC25 glutamate; HEK-293 hmGluR4; mean of at least three independent experiments in duplicate; read-out: Ca^2+ Flux (mean EC50)
Text: mGluR4 Assay on HEK-Expressing Human mGluR4
The compounds of the present invention are positive allosteric modulators of mGluR4 receptor. Their activity was examined on recombinant human mGluR4a receptors by detecting changes in intracellular Ca^2+concentration, using the fluorescent Ca^2+-sensitive dye Fluo4-(AM) and a Fluorometric Imaging Plate Reader (FLIPR, Molecular Devices, Sunnyvale, Calif.).
The cDNA encoding the human metabotropic glutamate receptor (hmGluR4), (accession number NM_000841.1, NCBI Nucleotide database browser), was subcloned into an expression vector containing also the hygromycin resistance gene. In parallel, the cDNA encoding a G protein allowing redirection of the activation signal to intracellular calcium flux was subcloned into a different expression vector containing also the puromycin resistance gene. Transfection of both these vectors into HEK293 cells with PolyFect reagent (Qiagen) according to supplier's protocol, and hygromycin and puromycin treatment allowed selection of antibiotic resistant cells which had integrated stably one or more copies of the plasmids. Positive cellular clones expressing hmGluR4 were identified in a functional assay measuring changes in calcium fluxes in response to glutamate or selective known mGluR4 orthosteric agonists and antagonists.
HEK-293 cells expressing hmGluR4 were maintained in media containing DMEM, dialyzed Fetal Calf Serum (10%), Glutamax™ (2 mM), Penicillin (100 units/mL), Streptomycin (100 μg/mL), Geneticin (100 μg/mL) and Hygromycin-B (40 μg/mL) and puromycin (1 μg/mL) at 37° C./5% CO2.
Human mGluR4 HEK-293 cells were plated out 24 hours prior to FLIPR^384 assay in black-walled, clear-bottomed, poly-L-ornithine-coated 384-well plates at a density of 25,000 cells/well in a glutamine/glutamate free DMEM medium containing foetal bovine serum (10%), penicillin (100 units/mL) and streptomycin (100 μg/mL) at 37° C./5% CO2.
On the day of the assay, the medium was aspirated and the cells were loaded with a 3 μM solution of Fluo4-AM (LuBioScience, Lucerne, Switzerland) in 0.03% pluronic acid. After 1 hour at 37° C./5% CO2, the non incorporated dye was removed by washing cell plate with the assay buffer and the cells were left in the dark at room temperature for […] before testing. All assays were performed in a pH=7.4 buffered-solution containing 20 mM HEPES, 143 mM NaCl, 6 mM KCl, 1 mM MgSO4, 1 mM CaCl2, 0.125 mM sulfapyrazone and 0.1% glucose.
After 10 s of basal fluorescence recording, various concentrations of the compounds of the invention were added to the cells. Changes in fluorescence levels were first monitored for 180 s in order to detect any agonist activity of the compounds. Then the cells were stimulated by an EC25 glutamate concentration for an additional 110 s in order to measure enhancing activities of the compounds of the invention. EC25 glutamate concentration is the concentration giving 25% of the maximal glutamate response.
The concentration-response curves of representative compounds of the present invention were generated using the Prism GraphPad software (Graph Pad Inc, San Diego, USA). The curves were fitted to a four-parameter logistic equation:
(Y=Bottom+(Top−Bottom)/(1+10̂((LogEC50−X)*Hill Slope)
allowing the determination of EC50 values.
The Table 3 below represents the mean EC50 obtained from at least three independent experiments of selected molecules performed in duplicate.

T1 sequence (Q14833 33-912): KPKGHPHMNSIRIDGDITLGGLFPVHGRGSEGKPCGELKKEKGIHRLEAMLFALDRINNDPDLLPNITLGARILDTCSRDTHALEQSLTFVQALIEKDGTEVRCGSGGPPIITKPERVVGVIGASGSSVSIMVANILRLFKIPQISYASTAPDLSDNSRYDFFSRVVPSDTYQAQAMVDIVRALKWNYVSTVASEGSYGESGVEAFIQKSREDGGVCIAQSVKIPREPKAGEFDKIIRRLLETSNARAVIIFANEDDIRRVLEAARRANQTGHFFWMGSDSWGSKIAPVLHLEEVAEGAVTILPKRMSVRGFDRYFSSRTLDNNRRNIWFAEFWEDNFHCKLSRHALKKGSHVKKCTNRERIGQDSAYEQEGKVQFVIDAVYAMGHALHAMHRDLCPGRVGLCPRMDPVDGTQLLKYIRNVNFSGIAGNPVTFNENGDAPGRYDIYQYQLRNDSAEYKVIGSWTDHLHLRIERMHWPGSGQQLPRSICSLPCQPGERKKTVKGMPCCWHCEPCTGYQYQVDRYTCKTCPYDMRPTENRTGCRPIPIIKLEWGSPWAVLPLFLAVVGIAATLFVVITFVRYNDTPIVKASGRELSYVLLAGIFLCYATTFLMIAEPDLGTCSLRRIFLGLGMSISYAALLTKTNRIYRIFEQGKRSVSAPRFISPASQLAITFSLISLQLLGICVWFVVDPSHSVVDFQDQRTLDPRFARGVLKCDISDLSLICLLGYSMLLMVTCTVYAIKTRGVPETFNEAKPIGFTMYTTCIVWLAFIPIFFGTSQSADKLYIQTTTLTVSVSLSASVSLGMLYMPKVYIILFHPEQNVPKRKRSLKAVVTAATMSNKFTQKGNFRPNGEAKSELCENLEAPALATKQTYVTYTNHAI

| SMILES | EC50 |
| --- | --- |
| CCC1OCc2sc(Nc3ncc(F)c(C)n3)nc2-c2cn[nH]c21 (centres unmarked) [Compound 1-21, (6-Ethyl-6,7-dihydro-4H-5-oxa-3-thia-1,7,8-triaza-cyclopenta[e]azulen-2-yl)-(5-fluoro-4-methyl-pyrimidin-2-yl)-amine] | < 100 nM |
| Cc1nc(Nc2nc3c(s2)C(=O)CCc2n[nH]cc2-3)ncc1F [Compound 1-30, 2-(5-Fluoro-4-methyl-pyrimidin-2-ylamino)-6,8-dihydro-5H-3-thia-1,7,8-triaza-cyclopenta[e]azulen-4-one] | 1000 to 10000 nM |

Reference: patent publication US20130252944A1, “NOVEL FUSED PYRAZOLE DERIVATIVES AND THEIR USE AS ALLOSTERIC MODULATORS OF METABOTROPIC GLUTAMATE RECEPTORS” (priority 2010, published 2013)
